Assay results as given in US20150166505A1, “PYRIDINYL-SUBSTITUTED PYRAZOLYL CARBOXAMIDES” (GRÜNENTHAL GMBH, priority 2013, published 2015).
Values after ≈ are worked out from the molar mass of the structure shown. Where two headings read alike, the source gives them in different places.

What was measured:
[1] = Nephelometric Solubility Measurement; type: physicochemical; settings: aqueous buffer, kinetic from dmso stock; phosphate buffered saline pH 7.4, 37° C., incubation 2 minutes
Description: Nephelometric Solubility Measurement
BMG Labtech Nephelostar (S/N 504-0167), 37° C.; Gain: 100; Laser Beam Focus 1.5 mm; Laser intensity 80%; measurement time/well 0.1 s; positioning delay 0.1 s; data analysis: BMG Labtech MARS software
Measurements with BMG Labtech Nephelostar performed though addition of DMSO stock solutions of compound (2, 5, 10, 20, 30, 40, 50, 60, 80, 100 [μg/mL]) into phosphate buffered saline (pH 7.4, purchased from Invitrogen, catalogue number 10010-056); incubation time: 2 minutes [blank measurement contains DMSO (2.5 μL) and buffered saline (47.5 μL)]; Detection of insoluble particles in liquid samples was performed by measuring forward scattered light.

[2] = molecular target: T1, CRAC channel (endogenous SOC in HEK293 cells) (Homo sapiens, UniProt Q96D31); assay: HEK Calcium Influx Assay (FLIPR); type: cell-based
T1 construct: endogenous in cells; host or cells: HEK293 (ECACC)
Description: The effect of compounds of the invention on intracellular [Ca^2+] was tested in the HEK293 cell line (ECACC). HEK293 cells were cultured in DMEM/F12/Glutamax (Gibco) containing 10% FCS (Gibco), and maintained at 37° C., 5% CO2. Cell were split twice a week [3*10^6 (Mon-Thu) and 1*10^6 (Thu-Mon) cells/50 ml medium in T-175 ZK culture flasks, respectively]. Twenty four hours pre-experiment, cells were seeded on 96 well plates (Poly-D-Lysine 96well Black/Clear Plate, BD Biocoat REF 356640) at a density of 40,000 cells/well in DMEM/F12 (Gibco) containing 10% FCS (Gibco), and maintained at 37° C., 5% CO2. Prior to store-depletion, cell culture medium was removed and cells were loaded with the a Calcium-sensitive fluorescent dye comprised within the Calcium-4-assay kit (Molecular Devices) in nominally Ca^2+-free HBS buffer (140 mM NaCl, 4 mM KCl, 0.2 mM MgCl2, 11 mM D-glucose, and 10 mM HEPES, pH 7.4) according to manufacturer's instruction for 60 min at 37° C., 5% CO2. Passive depletion of intracellular Ca^2+-stores was then triggered by employing the SERCA inhibitor thapsigargin (2 μM final) for 10 min in the dark (RT). To prevent immediate Ca^2+-entry via the activated Store-operated channels (SOCs), cells were maintained in Ca^2+-free HBS buffer comprising 100 μM EGTA during store-depletion. Intracellular changes in [Ca^2+] were subsequently monitored with the FLIPR device (Molecular Devices). In brief, baseline imaging post-store depletion was allowed for 1 min before adjusting the extracellular buffer to 3 mM CaCl2. Increases in intracellular [Ca^2+] due to pre-activated SOC channels were monitored for 15 min until intracellular Ca^2+ levels had declined into a steady-state. Finally, compounds were administered and Ca^2+ signals were recorded for additional 10 min. Inhibition of endogenous SOC in HEK293 cells was quantified employing the average Ca^2+ signal measured from 9.5-10 min post-administration. Zero percent inhibition (MAX) was defined as the Ca^2+ signal recorded from wells to which DMSO-only had been added instead of compound. Hundred percent inhibition (MIN) was defined as the signal obtained from wells in which cells haven't been treated with TG prior to Ca^2+ addition and to which DMSO-only had been added instead of compound. For routine IC50 determinations of compounds, 8 concentrations of a serial dilution (1:3.16) were tested, starting off from 10 μM. Reliable IC50's could consequently be determined only, if they were at least sub 2.5-3 μM.

[3] = tested on: Interleukin-2 (IL-2) production/release in Jurkat T cell line; assay: Jurkat IL-2 Production Assay; type: cell-based; settings: Homo sapiens; Jurkat T cells, PHA stimulation 22 hours
Description: Jurkat IL-2 Production Assay
The effect of compounds of the invention on Interleukin-2 (IL-2) production/release was tested in the Jurkat T cell line (ECACC) clone E6-1. Jurkat T cells were cultured in DMEM/F12/Glutamax (Gibco) containing 10% FCS (Gibco), and maintained at 37° C., 5% CO2. Cell were split twice a week [5*10^6 (Mon-Thu) and 1*10^7 (Thu-Mon) cells/50 ml medium in T-175 ZK culture flasks, respectively]. Prior to experiment, cells were seeded on 96 well plates (Cellstar 96 Well; Cat No. 655180, Greiner bio-one) at a density of 5*10^5 cells/well in DMEM/F12/Glutamax (Gibco) containing 10% FCS (Gibco), and incubated for 60 min at 37° C., 5% CO2. Subsequently, compounds were added and cells were allowed to incubate for 30 min at 37° C., 5% CO2. Cells were then stimulated with 15 μg/ml Phytohemagglutinin (PHA; Sigma) for 22 hours at 37° C., 5% CO2. Before sampling of the supernatants, cells were spun down (200*g/5 min/RT). The amount of IL-2 released into the supernatant was quantified with the human IL-2 AlphaLisa kit (Perkin Elmer) according to manufacturer's instructions. Luminescence proximity measurements were carried out in the Synergy H4 reader (BioTek) employing the fluorescence setting of the reader (ex: 680/30 nm; em: 620/40 nm). Inhibition of IL-production/release in/from Jurkat T cells was quantified as follows: Zero percent inhibition (MAX) was defined as the [IL-2] determined in supernatants derived from cells to which PHA & DMSO-only had been added instead of compound. Hundred percent inhibition (MIN) was defined as the [IL-2] determined in supernatants derived from cells that had been pre-treated with 1 μM CyclosporineA (Sigma) before the addition of 15 μg/ml PHA. For routine IC50 determinations of compounds, 8 concentrations of a serial dilution (1:3.16) were tested, starting off from 10 μM.

[4] = thapsigargin store depletion, read-out: % inhib. [@ 10 μM] FLIPR
[5] = numeric values of Table 2, read-out: inhib. [@ 10 μM] FLIPR

T1 sequence (Q96D31 whole entry): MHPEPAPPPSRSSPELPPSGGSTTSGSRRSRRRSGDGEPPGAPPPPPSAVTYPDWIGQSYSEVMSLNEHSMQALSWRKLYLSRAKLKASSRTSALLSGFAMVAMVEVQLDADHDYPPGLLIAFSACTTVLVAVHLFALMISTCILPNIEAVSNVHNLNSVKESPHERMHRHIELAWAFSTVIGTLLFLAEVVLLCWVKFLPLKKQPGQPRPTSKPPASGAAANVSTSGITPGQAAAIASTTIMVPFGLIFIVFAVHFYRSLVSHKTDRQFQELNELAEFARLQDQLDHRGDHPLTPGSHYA

For `CCOc1cc(C)c(-c2ccc(NC(=O)c3c(F)cccc3F)cc2)cn1` [Comparative example #3, reference compound], the solubility at 2 min [1] was under 14 µM.

`COc1cc(OC)c(-c2ccc(NC(=O)c3c(F)cccc3F)cc2)cn1` [Comparative example #4, reference compound] showed a solubility at 2 min [1] of 38.8 µM (≈ 14.4 µg/mL).

For `COc1cc(OC)c(-c2cc(C(=O)Nc3c(F)cccc3F)nn2C)cn1` [Example 38, N-(2,6-Difluoro-phenyl)-5-(4,6-dimethoxy-pyridin-3-yl)-1-methyl-1H-pyrazole-3-carboxylic acid amide], the inhibition at 10 µM [2, 4] was over 70%, the IC50 [3] was under 0.5 µM and the solubility at 2 min [1] was over 267 µM.

In the case of `COc1cc(OCC2COC2)ncc1-c1cc(C(=O)Nc2c(F)cccc2F)nn1C` [Example 51, N-(2,6-Difluoro-phenyl)-5-[4-methoxy-6-(oxetan-3-yl-methoxy)-pyridin-3-yl]-1-methyl-1H-pyrazole-3-carboxylic acid amide], the inhibition at 10 µM [2, 4] is reported as 50 to 70% and the IC50 [3] is reported as 1 to 5 µM.

Molecule `COc1cc(OC2CC2)ncc1-c1cc(C(=O)Nc2c(F)cccc2F)nn1C` [Example 61, 5-(6-Cyclopropyloxy-4-methoxy-pyridin-3-yl)-N-(2,6-difluoro-phenyl)-1-methyl-1H-pyrazole-3-carboxylic acid amide] has an inhibition at 10 µM [2, 4] of over 70% and an IC50 [3] of under 0.5 µM.

For `CCOc1cc(OC2COC2)c(-c2cc(C(=O)Nc3c(F)cccc3F)nn2C)cn1` [Example 49, N-(2,6-Difluoro-phenyl)-5-[6-ethoxy-4-(oxetan-3-yloxy)-pyridin-3-yl]-1-methyl-1H-pyrazole-3-carboxylic acid amide], the inhibition at 10 µM [2, 4] was 50 to 70% and the IC50 [3] was 1 to 5 µM.

For `CCOc1ccc(-c2cc(C(=O)Nc3c(F)cccc3F)nn2C)c(C)n1` [Example 5, N-(2,6-Difluoro-phenyl)-5-(6-ethoxy-2-methyl-pyridin-3-yl)-1-methyl-1H-pyrazole-3-carboxylic acid amide], the inhibition at 10 µM [2, 4] was over 70% and the IC50 [3] was 1 to 5 µM.

In the case of `CCOc1cc(C)c(-c2cc(C(=O)Nc3c(F)cncc3F)nn2C)cn1` [Example 2, N-(3,5-Difluoro-pyridin-4-yl)-5-(6-ethoxy-4-methyl-pyridin-3-yl)-1-methyl-1H-pyrazole-3-carboxylic acid amide], the inhibition at 10 µM [2, 5] is reported as 95%, the inhibition at 10 µM [2, 4] is reported as over 70% and the IC50 [3] is reported as 0.5 to 1 µM.

For `Cc1cc(OC2CC2)ncc1-c1cc(C(=O)Nc2c(F)cncc2F)nn1C` [Example 9, 5-(6-Cyclopropyloxy-4-methyl-pyridin-3-yl)-N-(3,5-difluoro-pyridin-4-yl)-1-methyl-1H-pyrazole-3-carboxylic acid amide], the inhibition at 10 µM [2, 5] was 76%, the inhibition at 10 µM [2, 4] was over 70% and the IC50 [3] was 0.5 to 1 µM.

With `COc1cc(Cl)c(-c2cc(C(=O)Nc3c(F)cccc3F)nn2C)cn1` [Example 56, 5-(4-Chloro-6-methoxy-pyridin-3-yl)-N-(2,6-difluoro-phenyl)-1-methyl-1H-pyrazole-3-carboxylic acid amide] the inhibition at 10 µM [2, 4] was over 70% and the IC50 [3] was 0.5 to 1 µM.

Work on `Cc1cc(OC(C)C)ncc1-c1cc(C(=O)Nc2c(F)cccc2F)nn1C` [Example 13, N-(2,6-Difluoro-phenyl)-5-(6-isopropoxy-4-methyl-pyridin-3-yl)-1-methyl-1H-pyrazole-3-carboxylic acid amide] yielded an inhibition at 10 µM [2, 5] of 100%, an inhibition at 10 µM [2, 4] of over 70% and an IC50 [3] of 0.5 to 1 µM.

For `COc1ncc(-c2nn(C)c(=O)o2)cc1-c1ccc(NC(=O)c2c(F)cccc2F)cc1` [Comparative example #5, reference compound], the solubility at 2 min [1] was under 11 µM.

For `CCOc1cc(C(F)(F)F)c(-c2cc(C(=O)Nc3c(F)cncc3F)nn2C)cn1` [Example 31, N-(3,5-Difluoro-pyridin-4-yl)-5-[6-ethoxy-4-(trifluoromethyl)-pyridin-3-yl]-1-methyl-1H-pyrazole-3-carboxylic acid amide], the inhibition at 10 µM [2, 4] was over 70% and the IC50 [3] was 1 to 5 µM.

With `CCOc1ncc(-c2cc(C(=O)Nc3c(F)cncc3F)nn2C)c(C)c1F` [Example 36, N-(3,5-Difluoro-pyridin-4-yl)-5-(6-ethoxy-5-fluoro-4-methyl-pyridin-3-yl)-1-methyl-1H-pyrazole-3-carboxylic acid amide] the inhibition at 10 µM [2, 4] was 50 to 70% and the IC50 [3] was 1 to 5 µM.

Work on `CCOc1cc(OC(F)F)c(-c2cc(C(=O)Nc3c(F)cccc3F)nn2C)cn1` [Example 47, 5-[4-(Difluoro-methoxy)-6-ethoxy-pyridin-3-yl]-N-(2,6-difluoro-phenyl)-1-methyl-1H-pyrazole-3-carboxylic acid amide] yielded an inhibition at 10 µM [2, 4] of over 70% and an IC50 [3] of under 0.5 µM.

For `Cc1cc(OC2CC2)ncc1-c1cc(C(=O)Nc2c(F)cccc2F)nn1C` [Example 10, 5-(6-Cyclopropyloxy-4-methyl-pyridin-3-yl)-N-(2,6-difluoro-phenyl)-1-methyl-1H-pyrazole-3-carboxylic acid amide], the inhibition at 10 µM [2, 5] was 83%, the inhibition at 10 µM [2, 4] was over 70% and the IC50 [3] was 0.5 to 1 µM.

`CCOc1cc(C(F)(F)F)c(-c2cc(C(=O)Nc3c(F)cccc3F)nn2C)cn1` [Example 32, N-(2,6-Difluoro-phenyl)-5-[6-ethoxy-4-(trifluoromethyl)-pyridin-3-yl]-1-methyl-1H-pyrazole-3-carboxylic acid amide] showed an inhibition at 10 µM [2, 4] of over 70% and an IC50 [3] of 0.5 to 1 µM.

`CCOc1cc(OC)c(-c2cc(C(=O)Nc3c(F)cncc3F)nn2C)cn1` [Example 14, N-(3,5-Difluoro-pyridin-4-yl)-5-(6-ethoxy-4-methoxy-pyridin-3-yl)-1-methyl-1H-pyrazole-3-carboxylic acid amide] showed an inhibition at 10 µM [2, 4] of over 70% and an IC50 [3] of under 0.5 µM.

Molecule `Cn1nc(C(=O)Nc2c(F)cncc2F)cc1-c1cnc(C2CC2)cc1C(F)(F)F` [Example 63, 5-[6-Cyclopropyl-4-(trifluoromethyl)-pyridin-3-yl]-N-(3,5-difluoro-pyridin-4-yl)-1-methyl-1H-pyrazole-3-carboxylic acid amide] has an inhibition at 10 µM [2, 4] of over 70% and an IC50 [3] of 1 to 5 µM.

`Cc1cc(C(F)(F)F)ncc1-c1cc(C(=O)Nc2c(F)cccc2F)nn1C` [Example 60, N-(2,6-Difluoro-phenyl)-1-methyl-5-[4-methyl-6-(trifluoromethyl)-pyridin-3-yl]-1H-pyrazole-3-carboxylic acid amide] showed an inhibition at 10 µM [2, 5] of 100%, an inhibition at 10 µM [2, 4] of over 70% and an IC50 [3] of 0.5 to 1 µM.
